Reference: patent publication US9512086B2, “Compound for promoting apoptosis of cancer cells and a pharmaceutical composition containing the same and uses thereof” (National Chiao Tung University, priority 2014, dated 2016)

Legend:
[1] = molecular target: T1, FGFR1 (fibroblast growth factor receptor-1) (Homo sapiens, UniProt P11362); test: KinaseProfiler assay, FGFR1; type: biochemical; settings: read-out: KAR value (kinase activity remaining)
T1 construct: purchased Merck Millipore (KinaseProfiler service)
From the text: (§1) The kinase activity remaining (KAR) value is […] related to kinase activity. […]

MARK2 (PAR-1Ba) = molecular target: T2, MARK2 (PAR-1Ba) (Homo sapiens, UniProt Q7KZI7); test: KinaseProfiler assay, MARK2; type: biochemical; settings: MARK2; 10 μM; read-out: KAR value (kinase activity remaining)
T2 construct: purchased Merck Millipore (KinaseProfiler service)
From the text: as §1

[2] = molecular target: T3, MAPK14 (stress-activated protein kinase-2a) (Homo sapiens, UniProt Q16539); test: KinaseProfiler assay, MAPK14; type: biochemical; settings: MAPK14; 10 μM; read-out: KAR value (kinase activity remaining)
T3 construct: purchased Merck Millipore (KinaseProfiler service)
From the text: as §1

[3] = molecular target: T4, SYK (splenic tyrosine kinase) (Homo sapiens, UniProt P43405); test: KinaseProfiler assay, SYK; type: biochemical; settings: SYK; 10 μM; read-out: KAR value (kinase activity remaining)
T4 construct: purchased Merck Millipore (KinaseProfiler service)
From the text: as §1

[4] = molecular target: T5, MKNK2 (MAPK-interacting kinase-2) (Homo sapiens, UniProt Q9HBH9); test: KinaseProfiler assay, MKNK2; type: biochemical; settings: read-out: KAR value (kinase activity remaining)
T5 construct: purchased Merck Millipore (KinaseProfiler service)
From the text: as §1

[5] = system: A549 human lung xenograft tumors; test: Tumor growth of xenograft human lung tumors in nude mice; type: in vivo; settings: 30 mg/kg three times every 4 days, day 16; control groups 406.52 mm^3
From the text: (§2) The present invention determines the effect of Analogue-18 on tumor growth of the xenograft human lung tumors in nude mice. BALB/cAnN.Cg-FoxnInu/CrlNarl mice (3-week-old male) were obtained from BioLASCO (BioLASCO Co., Ltd., Taipei, Taiwan). After 2 weeks for environmental adaption, the mice were used for human lung cancer cell inoculation. Solid A549 flank tumors were established by subcutaneous injection of 2×10^6 cells. After 10 days, the mice bearing A549 human lung xenograft tumors were injected with 100 μl corn oil (control) or 30 mg/kg Analogue-18 for three times every 4 days. The tumor size of the mice was measured by a digital caliper every 4 days and calculated by the following formula: (length)×(width)^2×0.5. The xenograft tumors were harvested from scarified mice. The tumors were homogenized and the total lysate were subjected to Western blot analysis according to Example 4.

A549 cells [6] = test: Annexin V-PI apoptosis analysis by flow cytometry; type: cell-based, human; settings: 10-40 μM for 24 hours
Procedure: The Annexin V-PI staining kit (BioVision, Mountain View, Calif.) was used to exam the cells by incubating with fluorescent isothiocyanate (FITC)-conjugated-Annexin V and PI according to the manufacturer's instruction. […] The cells were cultured in 60-mm Petri dish at a density of 7×10^5 cells for 16 to 20 hours. […] The cells were trypsinized and collected by centrifugation at 1500 rpm for 5 minutes. Thereafter, the cells were incubated with 500 μl Annexin V-PI labeling solution (containing 5 μl Annexin V-FITC and 5 μl PI in PBS) at room temperature in the dark for 5 minutes. To avoid cell aggregation, the cell solutions were filtered through a nylon mesh membrane (Becton-Dickinson, San Jose, Calif.). Finally, the samples were analyzed immediately using flow cytometer (FACS Calibur, BD Biosciences, Heidelberg, Germany). The percentage of Annexin V-PI staining cells was quantified from a minimum of 10,000 cells by CellQuest software (BD Biosciences).

EGFR protein kinase = molecular target: T6, EGFR protein kinase (Homo sapiens, UniProt P00533); test: ADP-Glo Kinase Assay, EGFR protein kinase activity; type: biochemical
T6 construct: purchased Promega

[7] = system: CL3 human lung cancer cell line; test: MTT cell viability, CL3 cells; type: cell-based; settings: 24 hours
Procedure: (§3) After drug treatment, the cells were washed with PBS and replaced with fresh complete RPMI-1640 medium for 2 days. Thereafter, the medium was replaced and the cells were incubated with 0.5 mg/mL of MTT reagent (Sigma Chemical Co., St. Louis, Mo.) in complete RPMI-1640 medium for 4 hours. The intensity of formazan was measured at 565 nm using a plate reader (VERSAmax, Molecular Dynamics, Sunnyvale, Calif.). The relative percentage of cell viability was calculated by dividing the absorbance of treated cells by that of the control in each experiment.

[8] = molecular target: T7, EGFR (epidermal growth factor receptor) (Homo sapiens, UniProt P00533); test: KinaseProfiler assay, EGFR; type: biochemical; settings: read-out: KAR value (kinase activity remaining)
T7 construct: purchased Merck Millipore (KinaseProfiler service)

A549 cells [9] = test: Cell growth, cell number by hemocytometer; type: cell-based, human; settings: 30 μM for 24 hours, then cultured 2-6 days
Procedure: The cells were washed with PBS after the treatment. […] The cell number was calculated with hemocytometer.

caspase 3 = test: Western blot of active caspase 3 in A549 cells; settings: 10-40 μM, 24 hours
Procedure: (§4) The protease inhibitors including 1 μg/ml aprotinin, 0.5 μg/ml leupeptin, and 100 μg/ml 4-(2-aminoethyl)benzenesulfonyl fluoride were added to the cell suspensions. The lysates were vibrated for 30 minutes at 4° C. and centrifuged at 10,000 rpm for 10 minutes. The protein concentrations were determined by the BCA protein assay kit (Pierce, Rockford, Ill.). […] The membranes were blocked overnight at 4° C. using blocking buffer (5% non-fat dried milk in solution containing 50 mM Tris/HCl (pH 8.0), 2 mM CaCl2, 80 mM NaCl, 0.05% Tween 20 and 0.02% sodium azide). The membranes were sequentially hybridized with primary antibody and followed with a horseradish peroxidase-conjugated secondary antibody. The protein bands were visualized on the X-ray film using the enhanced chemiluminescence detection system (PerkinElmer Life and Analytical Sciences, Boston, Mass.). […] To verify equal protein loading and transfer, actin was used as the protein loading control. The gel digitizing software, Un-Scan-It gel (Ver. 5.1, Silk Scientific, Inc., Orem, Utah), was used to analyze the intensity of protein bands on X-ray film.
(§5) A549 cells were plated at a density of 1×10^6 cells per 60-mm Petri dish in complete medium for 16 to 20 hours. […] To verify equal protein loading and transfer, actin was used as the protein loading control.

survivin [10] = test: Western blot of survivin protein in xenograft tumors; type: in vivo, nude mice; settings: 30 mg/kg three times every 4 days
From the text: as §2

A549 cells [11] = test: Cell cycle analysis, PI staining and flow cytometry; type: cell-based, human; settings: 24 hours
Procedure: After the treatment, the cells were collected and fixed with ice-cold 70% ethanol overnight at −20° C. After centrifugation at 1500 rpm for 5 minutes, the pellets were treated with 4 μg/ml PI solution containing 1% Triton X-100 and 50 μg/ml RNase at 37 °C for 30 minutes in the dark. To avoid cell aggregation, the cell solutions were filtrated through nylon membrane (Becton-Dickinson, San Jose, Calif.). Subsequently, the samples were analyzed by flow cytometry. For each measurement, 10,000 cells were analyzed for DNA content. The percentage of cell cycle phases was quantified by ModFit LT software (Ver. 2.0, Becton-Dickinson).

[12] = molecular target: T8, STK10 (lymphocyte-oriented kinase) (Homo sapiens, UniProt O94804); test: KinaseProfiler assay, STK10; type: biochemical; settings: read-out: KAR value (kinase activity remaining)
T8 construct: purchased Merck Millipore (KinaseProfiler service)
From the text: as §1

PARP = test: Western blot of cleaved PARP in A549 cells; settings: 10-40 μM, 24 hours
Procedure: as §4, §5

[13] = MTT cell viability, HFL1 normal lung fibroblasts; type: cell-based; settings: human, HFL1 normal lung fibroblast cells, 0 to 40 μM
Procedure: as §3

[14] = molecular target: T9, RET (product of ret proto-oncogene) (Homo sapiens, UniProt P07949); test: KinaseProfiler assay, RET; type: biochemical; settings: RET; 10 μM; read-out: KAR value (kinase activity remaining)
T9 construct: purchased Merck Millipore (KinaseProfiler service)
From the text: as §1

survivin [15] = test: RT-PCR of survivin gene expression in A549 cells; type: cell-based, human; settings: 0 to 40 μM, 24 hours
Procedure: After the treatment, total cellular RNA was purified by ZR RNA MiniPrep™ (Zymo Research, Irvine, Calif.) according to the manufacturer's protocol. RNA concentrations were determined by spectrophotometry. cDNAs were synthesized by SuperScript™ III reverse transcriptase with oligo (dT)12-18 primer (Invitrogen). Each reverse transcript was amplified with GAPDH as an internal control. Reverse transcription polymerase chain reaction (RT-PCR) was performed by a DNA thermal cycler (Mastercycler gradient, Hamburg, Germany). […] The conditions of RT-PCR are stated as followed: the initial denaturation was performed at 94° C. for 2 minutes, followed by 30 cycles at 94° C. for 30 seconds, 56° C. for 30 seconds, and 72° C. for 40 seconds; and 72° C. for 5 minutes. The PCR products were visualized on 1.2% agarose gels with ethidium bromide staining under UV transillumination, and photograph was taken by a camera DH27-S3 (Medclub, Taoyuan, Taiwan).

[16] = molecular target: T10, CHEK1 (checkpoint kinase-1) (Homo sapiens, UniProt O14757); test: KinaseProfiler assay, CHEK1; type: biochemical; settings: read-out: KAR value (kinase activity remaining)
T10 construct: purchased Merck Millipore (KinaseProfiler service)
From the text: The kinase activity remaining (KAR) value is inversely related to kinase activity.

[17] = molecular target: T11, CSNK2A1 (casein kinase-2) (Homo sapiens, UniProt P68400); test: KinaseProfiler assay, CSNK2A1; type: biochemical; settings: CSNK2A1; 10 μM; read-out: KAR value (kinase activity remaining)
T11 construct: purchased Merck Millipore (KinaseProfiler service)
From the text: as §1

survivin [18] = test: Western blot of survivin protein expression in A549 cells; settings: 0 to 40 μM, 24 hours
Procedure: as §4, §5

LCK (lymphocyte kinase) = molecular target: T12, LCK (lymphocyte kinase) (Homo sapiens, UniProt P06239); test: KinaseProfiler assay, LCK; type: biochemical; settings: read-out: KAR value (kinase activity remaining)
T12 construct: purchased Merck Millipore (KinaseProfiler service)
T12 sequence (P06239 whole entry): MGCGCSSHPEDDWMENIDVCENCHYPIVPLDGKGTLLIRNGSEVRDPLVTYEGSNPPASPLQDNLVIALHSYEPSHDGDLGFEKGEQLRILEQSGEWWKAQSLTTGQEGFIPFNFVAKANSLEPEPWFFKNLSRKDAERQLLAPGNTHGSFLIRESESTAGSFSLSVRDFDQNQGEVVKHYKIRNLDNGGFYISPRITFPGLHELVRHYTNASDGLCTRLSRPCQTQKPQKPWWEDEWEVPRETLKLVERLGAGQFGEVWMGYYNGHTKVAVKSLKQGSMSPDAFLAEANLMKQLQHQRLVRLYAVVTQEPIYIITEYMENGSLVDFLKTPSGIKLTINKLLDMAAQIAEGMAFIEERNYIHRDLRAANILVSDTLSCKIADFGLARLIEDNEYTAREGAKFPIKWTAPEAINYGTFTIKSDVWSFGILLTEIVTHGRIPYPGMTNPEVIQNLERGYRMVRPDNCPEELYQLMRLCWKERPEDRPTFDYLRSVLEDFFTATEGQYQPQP

T6 sequence (P00533 25-1210): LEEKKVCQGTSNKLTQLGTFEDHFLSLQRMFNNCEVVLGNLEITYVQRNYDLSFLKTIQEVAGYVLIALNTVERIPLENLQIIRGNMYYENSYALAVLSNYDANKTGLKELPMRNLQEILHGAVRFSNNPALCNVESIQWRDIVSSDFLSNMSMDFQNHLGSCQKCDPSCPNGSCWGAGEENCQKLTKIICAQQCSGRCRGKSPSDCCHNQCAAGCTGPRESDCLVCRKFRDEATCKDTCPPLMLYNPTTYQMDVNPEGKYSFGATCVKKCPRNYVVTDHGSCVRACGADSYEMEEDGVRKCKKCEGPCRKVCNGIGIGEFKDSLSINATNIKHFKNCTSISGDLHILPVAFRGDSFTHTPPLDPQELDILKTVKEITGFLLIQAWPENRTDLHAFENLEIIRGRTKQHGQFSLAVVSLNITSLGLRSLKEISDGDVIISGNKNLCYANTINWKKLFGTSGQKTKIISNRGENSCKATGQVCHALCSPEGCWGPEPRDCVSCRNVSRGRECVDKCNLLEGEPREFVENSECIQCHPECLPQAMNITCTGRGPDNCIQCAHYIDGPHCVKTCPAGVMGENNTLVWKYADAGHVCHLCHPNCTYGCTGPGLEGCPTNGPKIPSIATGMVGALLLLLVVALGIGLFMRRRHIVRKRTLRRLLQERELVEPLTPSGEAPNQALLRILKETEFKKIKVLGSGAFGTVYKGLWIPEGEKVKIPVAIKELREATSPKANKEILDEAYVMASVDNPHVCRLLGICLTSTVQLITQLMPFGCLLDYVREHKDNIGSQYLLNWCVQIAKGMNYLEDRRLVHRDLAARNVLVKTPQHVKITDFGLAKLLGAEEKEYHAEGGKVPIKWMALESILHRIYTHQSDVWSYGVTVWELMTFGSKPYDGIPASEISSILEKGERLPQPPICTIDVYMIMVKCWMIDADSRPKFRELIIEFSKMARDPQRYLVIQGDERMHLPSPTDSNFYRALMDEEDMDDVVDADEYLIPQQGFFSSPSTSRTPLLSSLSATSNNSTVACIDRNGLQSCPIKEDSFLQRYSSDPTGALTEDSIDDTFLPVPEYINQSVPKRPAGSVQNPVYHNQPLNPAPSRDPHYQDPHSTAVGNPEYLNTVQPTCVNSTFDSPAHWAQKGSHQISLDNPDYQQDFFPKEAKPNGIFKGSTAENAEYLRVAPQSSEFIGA
T2 sequence (Q7KZI7 1-725 isoform Q7KZI7-4): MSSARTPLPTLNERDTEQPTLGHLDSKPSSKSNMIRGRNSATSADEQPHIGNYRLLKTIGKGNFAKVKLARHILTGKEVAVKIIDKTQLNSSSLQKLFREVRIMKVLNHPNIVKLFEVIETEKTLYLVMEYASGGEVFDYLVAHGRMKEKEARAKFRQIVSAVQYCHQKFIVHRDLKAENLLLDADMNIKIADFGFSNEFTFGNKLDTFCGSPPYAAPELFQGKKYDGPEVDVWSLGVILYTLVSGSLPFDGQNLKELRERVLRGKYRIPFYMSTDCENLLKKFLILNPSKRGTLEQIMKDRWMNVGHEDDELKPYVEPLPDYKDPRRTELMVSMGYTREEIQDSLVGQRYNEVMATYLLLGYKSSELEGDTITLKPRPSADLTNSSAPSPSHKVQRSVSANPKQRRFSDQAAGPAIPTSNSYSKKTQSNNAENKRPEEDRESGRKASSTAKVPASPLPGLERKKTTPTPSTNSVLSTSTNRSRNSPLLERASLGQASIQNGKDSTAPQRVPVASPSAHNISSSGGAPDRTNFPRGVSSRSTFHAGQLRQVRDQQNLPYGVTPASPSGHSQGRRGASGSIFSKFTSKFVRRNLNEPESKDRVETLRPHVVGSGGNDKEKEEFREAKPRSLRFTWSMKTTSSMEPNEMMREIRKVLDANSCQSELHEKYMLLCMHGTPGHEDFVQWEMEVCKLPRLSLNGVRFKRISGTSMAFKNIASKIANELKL
T3 sequence (Q16539 whole entry): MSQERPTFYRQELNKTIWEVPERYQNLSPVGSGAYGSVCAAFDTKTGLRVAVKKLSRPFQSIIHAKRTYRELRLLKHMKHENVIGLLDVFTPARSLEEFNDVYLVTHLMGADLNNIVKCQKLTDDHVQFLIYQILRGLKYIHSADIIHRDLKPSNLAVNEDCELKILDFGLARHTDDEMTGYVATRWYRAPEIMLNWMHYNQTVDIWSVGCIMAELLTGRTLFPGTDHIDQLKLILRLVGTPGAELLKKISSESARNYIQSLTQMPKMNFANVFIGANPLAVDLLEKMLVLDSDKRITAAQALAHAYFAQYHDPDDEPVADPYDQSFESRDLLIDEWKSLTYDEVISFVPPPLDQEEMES
T5 sequence (Q9HBH9 whole entry): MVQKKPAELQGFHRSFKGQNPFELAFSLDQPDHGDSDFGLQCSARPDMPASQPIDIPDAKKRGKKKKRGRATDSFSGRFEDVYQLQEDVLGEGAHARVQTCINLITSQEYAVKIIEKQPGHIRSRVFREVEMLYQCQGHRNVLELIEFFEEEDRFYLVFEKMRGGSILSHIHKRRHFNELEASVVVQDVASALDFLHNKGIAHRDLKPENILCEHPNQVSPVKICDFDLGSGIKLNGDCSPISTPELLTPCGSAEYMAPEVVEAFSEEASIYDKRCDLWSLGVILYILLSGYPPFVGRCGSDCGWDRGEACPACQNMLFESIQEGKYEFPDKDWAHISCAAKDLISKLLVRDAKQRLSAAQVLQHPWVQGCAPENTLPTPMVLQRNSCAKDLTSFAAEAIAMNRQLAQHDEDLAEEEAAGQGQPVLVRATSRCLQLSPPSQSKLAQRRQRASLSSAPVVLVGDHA
T7 sequence (P00533 25-1210): as the sequence (P00533 25-1210) above
T10 sequence (O14757 whole entry): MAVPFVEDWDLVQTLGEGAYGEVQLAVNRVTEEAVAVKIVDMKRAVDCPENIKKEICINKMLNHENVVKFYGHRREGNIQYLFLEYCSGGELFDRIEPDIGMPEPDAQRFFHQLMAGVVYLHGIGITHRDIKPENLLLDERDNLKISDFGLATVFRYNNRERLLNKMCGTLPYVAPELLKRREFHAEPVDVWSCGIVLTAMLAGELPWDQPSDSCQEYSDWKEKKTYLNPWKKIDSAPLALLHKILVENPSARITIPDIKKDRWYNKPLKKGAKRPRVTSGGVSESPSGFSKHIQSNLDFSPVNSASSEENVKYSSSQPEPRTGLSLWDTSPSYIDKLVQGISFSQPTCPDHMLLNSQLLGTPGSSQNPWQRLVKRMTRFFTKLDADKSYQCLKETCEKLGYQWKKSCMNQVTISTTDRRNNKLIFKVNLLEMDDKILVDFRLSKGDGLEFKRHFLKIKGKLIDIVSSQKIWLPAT

Molecule `CCCCCCCCCCCCOC(=O)CCC(=O)N1CCN(CCCOc2cc3c(Nc4ccc(F)c(Cl)c4)ncnc3cc2OC)CC1` [Analogue-18, dodecyl 4-(4-(3-(4-(3-chloro-4-fluorophenylamino)-7-methoxyquinazolin-6-yloxy)propyl)piperazin-1-yl)-4-oxobutanoate] has a remaining activity at 10 µM [1] of 82%, a remaining activity at 10 µM (MARK2 (PAR-1Ba)) of 84% and a remaining activity at 10 µM [2] of 87%. It also gave a remaining activity at 10 µM [3] of 87%, a remaining activity at 10 µM [4] of 85% and an average tumor size [5] of 118.19 mm^3. For the same molecule, the “average of total apoptosis” value (A549 cells [6]) was “around 67.9%”, the IC50 (EGFR protein kinase; by the IVIS system) was ~130 nM and the IC50 (EGFR protein kinase; by the Luminometer) was ~126 nM. The reducing cell viability ([7]; CL3, 0 to 40 μM, compared with Iressa) was “more effective on reducing cell viability than Iressa”, the toxicity effects ([7]; CL3, 40 μM) was “more than 99%” and the remaining activity at 10 µM [8] was -2%. The “cell growth of A549 cells” value (A549 cells [9]) was “inhibit cell growth of A549 cells, and Analogue-18 is more effective”, the “active form of caspase 3” value (caspase 3) was “significantly induced” and the “survivin protein levels of xenograft tumors” value (survivin [10]) was “significantly reduced about half amount”. For the same molecule, the “fractions of G1, S and G2/M phases” value (A549 cells [11]; 0 to 40 μM) was “does not significantly alter”, the “average percentage of sub-G1 fractions” value (A549 cells [11]; 40 μM) was 66.7% and the remaining activity at 10 µM [12] was 43%. For the same molecule, the “cleaved form of PARP” value (PARP) was “induced the cleaved form of PARP”, the viability at 24 h [13] was > 30% and the remaining activity at 10 µM [14] was 98%. The survivin gene expression (survivin [15]) was “significantly inhibited in a concentration-dependent manner”, the remaining activity at 10 µM [16] was 69% and the remaining activity at 10 µM [17] was 76%. For the same molecule, the survivin protein expression (survivin [18]) was “significantly inhibited surviving protein expression” and the remaining activity at 10 µM (LCK (lymphocyte kinase)) was 89%.
